Paper PMC6652260 (Endocrine Connections, 2019)

Tests used:
[1] = tested on: human trophoblast cell lines BeWo and HTR-8; conditions: DES at pM, BeWo and HTR-8 cells; cited from earlier work
human placental HSD11B2 = biological target: T1, human placental HSD11B2 (Homo sapiens, UniProt P80365); experiment: Human placental microsomal HSD11B2 activity assay; assay type: biochemical
T1 sequence (P80365 1-405): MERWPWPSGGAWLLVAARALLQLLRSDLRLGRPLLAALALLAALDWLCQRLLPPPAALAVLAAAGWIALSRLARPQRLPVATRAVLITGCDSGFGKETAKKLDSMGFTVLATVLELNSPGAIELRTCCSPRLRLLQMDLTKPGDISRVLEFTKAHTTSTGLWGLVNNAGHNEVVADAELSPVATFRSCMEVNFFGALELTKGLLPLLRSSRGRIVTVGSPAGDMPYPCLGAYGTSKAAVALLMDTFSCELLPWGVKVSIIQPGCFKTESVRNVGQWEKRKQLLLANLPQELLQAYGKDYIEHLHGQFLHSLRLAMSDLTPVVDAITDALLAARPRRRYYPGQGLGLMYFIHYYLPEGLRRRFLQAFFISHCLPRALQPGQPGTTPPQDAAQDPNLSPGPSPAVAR

[2] = tested on: cultured trophoblast cells; conditions: cited from earlier work

| IC50 (human placental HSD11B2) [µM] | Mode of action versus cofactor NAD+ (Lineweaver–Burk), human HSD11B2 (human placental HSD11B2; cofactor NAD+ varied, human placental microsomes) | Mode of action versus steroid substrate (Lineweaver–Burk), human HSD11B2 (human placental HSD11B2; cortisol as the substrate, human placental microsomes) | inhibition at 100 µM (human placental HSD11B2; read-out: Inhibition of human placental HSD11B2 activity) [%] | SMILES | Effect on human β-chorionic gonadotropin (β-hCG) secretion [1] | Effect on secretion of human chorionic gonadotropin [2] |
| --- | --- | --- | --- | --- | --- | --- |
| 12.6 | uncompetitive inhibitor | competitive inhibitor | > 50 | CC/C(=C(/CC)c1ccc(O)cc1)c1ccc(O)cc1 [DES, Diethylstilbestrol] | can inhibit |  |
|  |  |  |  | CC1(C)[C@@H](OC(=O)CCC(=O)O)CC[C@]2(C)[C@H]3C(=O)C=C4[C@@H]5C[C@@](C)(C(=O)O)CC[C@]5(C)CC[C@@]4(C)[C@]3(C)CC[C@@H]12 [carbenoxolone] |  | stimulated secretion |
